Patent US7935506B2, “Method for producing a lower alkyl ester of α-L-aspartyl-L-phenylalanine” (priority 2001, dated 2011)

What was measured:
Assay type in all cases: cell-based
Conditions in all cases: 37° C.
[1] = system: E. coli strain TG1 (pUC19); experiment: Growth on M9 glucose minimal agar plates containing inhibitor, strain TG1 (pUC19)
Protocol: (§1) The pYDDG1 and pYDDG2 plasmids and the pUC19 and pAYCTER3 vectors were introduced into E. coli strain TG1. Thus the strains TG1 (pYDDG1), TG1 (pYDDG2), TG1 (pUC19) and TG1 (pAYCTER3) were obtained.
(§2) Then the ability of these strains to grow in the presence of amino acids and amino acid analogues for each strain were determined on M9 glucose minimal agar plates containing graded concentrations of inhibitor. The plates were spotted with 10^6 to 10^7 cells from an overnight culture grown in a minimal medium (supplemented with 100 μg/ml of ampicillin for plasmid strains). The growth was estimated after 44 h incubation at 37° C.

[2] = system: E. coli strain TG1 (pYDDG1); experiment: Growth on M9 glucose minimal agar plates containing inhibitor, strain TG1 (pYDDG1)
Protocol: as §1, §2

[3] = system: E. coli strain TG1 (pYDDG2); experiment: Growth on M9 glucose minimal agar plates containing inhibitor, strain TG1 (pYDDG2)
Protocol: as §1, §2
Also: key: +: good growth; ±: pour growth; −: no growth.

NC(Cc1c[nH]c2ccc(F)cc12)C(=O)O (racemic) [5-fluoro-DL-tryptophane]
Growth after 44 h TG1 (pUC19) ([1]; substrate 0.0005 mg/ml): − | Growth after 44 h TG1 (pYDDG1) ([2]; substrate 0.0005 mg/ml): +

NC(Cc1ccc(F)cc1)C(=O)O (racemic) [p-fluoro-DL-phenylalanine]
Growth after 44 h TG1 (pYDDG2) ([3]; substrate 1.0 mg/ml): + | Growth after 44 h TG1 (pYDDG2) ([3]; substrate 2.0 mg/ml): − | Growth after 44 h TG1 (pUC19) ([1]; substrate 1.0 mg/ml): − | Growth after 44 h TG1 (pUC19) ([1]; substrate 2.0 mg/ml): − | Growth after 44 h TG1 (pYDDG1) ([2]; substrate 1.0 mg/ml): + | Growth after 44 h TG1 (pYDDG1) ([2]; substrate 2.0 mg/ml): +

N[C@@H](Cc1ccccc1)C(=O)O [L-phenylalanine]
Growth after 44 h TG1 (pYDDG2) ([3]; substrate 20.0 mg/ml): ± | Growth after 44 h TG1 (pUC19) ([1]; substrate 20.0 mg/ml): − | Growth after 44 h TG1 (pYDDG1) ([2]; substrate 20.0 mg/ml): +
